According to patent US6620807B1, “Pyridobenzodiazepine and pyridobenzoxazepine carboxyamide vasopressin agonists” (Wyeth, priority 1999, dated 2003):

Target: T1, Vasopressin V2 (Rattus norvegicus, UniProt Q00788)
T1 construct: Vasopressin V2 Agonist Effects of Test Compounds in Normal Conscious Water-loaded Rats; from tissue; host or cells: whole animal: conscious water-loaded Sprague-Dawley rats (V2 receptors of the kidney collecting ducts)
Test: Vasopressin V2 agonist effects of test compounds in normal conscious water-loaded rats
Type: in vivo
Details: oral dose of 10 mg/Kg, water-loaded Sprague-Dawley (CD) rats; for Changes in Urinary Osmolality: osmolality changes expressed as percent of control, urine collected for four hours; for Urine Volume (% decrease): percent decrease in urine volume vs. control, urine collected for four hours after dosing
Text: Vasopressin V2 Agonist Effects of Test Compounds in Normal Conscious Water-loaded Rats:
Male or female normotensive Sprague-Dawley rats (Charles River Laboratories, Inc., Kingston, N.Y.) of 350-500 g body weight were supplied with standard rodent diet (Purina Rodent Lab. Chow 5001) and water ad libitum. On the day of test, rats were placed individually into metabolic cages equipped with devices to separate the feces from the urine and containers for collection of urine. A test compound or a reference agent was given at an oral dose of 10 mg/Kg in a volume of 10 mL/Kg. The vehicle used was 20% dimethylsulfoxide (DMSO) in 2.5% preboiled corn starch. Thirty minutes after dosing the test compound, rats were gavaged with water at 30 mL/Kg into the stomach using a feeding needle. During the test, rats were not provided with water or food. Urine was collected for four hours after dosing of the test compound. At the end of four hours, urine volume was measured. Urinary osmolality was determined using a Fiske One-Ten Osmometer (Fiske Associates, Norwood, Mass., 02062) or an Advanced CRYOMATIC Osmometer, Model 3C2 (Advanced Instruments, Norwood, Mass.). Determinations of Na^+, K^+ and Cl^− ion were carried out using ion specific electrodes in a Beckman SYNCHRON EL-ISE Electrolyte System analyzer. The urinary osmolality should increase proportionally. In the screening test, two rats were used for each compound. If the difference in the urine volume of the two rats was greater than 50%, a third rat was used.

T1 sequence (Q00788 whole entry): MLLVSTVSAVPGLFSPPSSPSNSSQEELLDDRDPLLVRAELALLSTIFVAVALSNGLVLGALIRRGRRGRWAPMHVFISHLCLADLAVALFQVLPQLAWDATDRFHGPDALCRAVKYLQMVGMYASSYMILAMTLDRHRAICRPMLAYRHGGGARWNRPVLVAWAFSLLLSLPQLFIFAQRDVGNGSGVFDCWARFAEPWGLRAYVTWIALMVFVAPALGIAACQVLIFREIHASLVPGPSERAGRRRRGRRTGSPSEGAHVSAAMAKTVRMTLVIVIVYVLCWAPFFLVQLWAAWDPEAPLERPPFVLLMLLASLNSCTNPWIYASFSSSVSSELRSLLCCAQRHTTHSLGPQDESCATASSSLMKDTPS

Row | Structure (SMILES) | Changes in Urinary Osmolality | Urine Volume (% decrease)
1 | Cn1ccc2cc(C(=O)N3Cc4cccnc4Nc4ccccc43)ccc21 [Example 1] | 159% of control | 74 % decrease
2 | O=C(c1ccc2c(c1)OCO2)N1Cc2cccnc2Nc2ccccc21 [Example 2, Benzo [1,3]Dioxol-5-yl-(5,11-dihydro-benzo[b]pyrido [2.3-e][1,4]Diazepin-6-yl)-mothanone] | 247% of control | 61 % decrease
3 | O=C(c1ccc2c(c1)CCO2)N1Cc2cccnc2Nc2ccccc21 [Example 3, (5,11-Dihydro-benzo[b]pyrido [2.3-e][1,4]Diazepin-6-yl)-(2,3-dihydro-benzofuran-5-yl)-methanone] | 54% of control | 29 % decrease
4 | O=C(c1ccc2nonc2c1)N1Cc2cccnc2Nc2ccccc21 [Example 4, Benzo[1,2,5]oxadiazol-5-yl-(5,11-dihydro-benzo[b]pyrido [2.3-e][1,4]Diazepin-6-yl)-methanone] |  | 13 % decrease
5 | O=C(c1ccc2ncsc2c1)N1Cc2cccnc2Nc2ccccc21 [Example 5] | 78% of control | 31 % decrease
6 | Cn1ccc2cc(C(=O)N3Cc4cccnc4Oc4ccccc43)ccc21 [Example 6] | 35% of control | 21 % decrease
